Assay results: publication PMC11091072, “Targeting bacterial nickel transport with aspergillomarasmine A suppresses virulence-associated Ni-dependent enzymes” (Nature Communications, 2024)
Values joined by “and” are separate entries in the source; they are usually repeats but may differ in a detail not shown here. Identical values can stand only once. Like-named read-outs stand apart in the source and are kept apart here.

How the values were obtained:
[1] = target: T1, urease (Klebsiella pneumoniae subsp. pneumoniae, UniProt A6TE40+A6TE41+A6TE42); assay: Urease activity in cell-free extracts (NH3 release, indophenol-hypochlorite); type: biochemical
T1 construct: endogenous in cells; host or cells: Klebsiella pneumoniae (ATCC 33495), sonicated and cleared lysate
T1 sequence (A6TE41 whole entry): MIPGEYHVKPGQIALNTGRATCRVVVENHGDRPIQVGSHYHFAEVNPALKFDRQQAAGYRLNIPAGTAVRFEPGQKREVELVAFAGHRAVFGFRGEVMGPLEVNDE
T1 sequence (A6TE40 whole entry): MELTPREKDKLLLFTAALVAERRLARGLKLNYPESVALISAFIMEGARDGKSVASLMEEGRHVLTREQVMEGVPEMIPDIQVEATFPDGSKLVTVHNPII
T1 sequence (A6TE42 whole entry): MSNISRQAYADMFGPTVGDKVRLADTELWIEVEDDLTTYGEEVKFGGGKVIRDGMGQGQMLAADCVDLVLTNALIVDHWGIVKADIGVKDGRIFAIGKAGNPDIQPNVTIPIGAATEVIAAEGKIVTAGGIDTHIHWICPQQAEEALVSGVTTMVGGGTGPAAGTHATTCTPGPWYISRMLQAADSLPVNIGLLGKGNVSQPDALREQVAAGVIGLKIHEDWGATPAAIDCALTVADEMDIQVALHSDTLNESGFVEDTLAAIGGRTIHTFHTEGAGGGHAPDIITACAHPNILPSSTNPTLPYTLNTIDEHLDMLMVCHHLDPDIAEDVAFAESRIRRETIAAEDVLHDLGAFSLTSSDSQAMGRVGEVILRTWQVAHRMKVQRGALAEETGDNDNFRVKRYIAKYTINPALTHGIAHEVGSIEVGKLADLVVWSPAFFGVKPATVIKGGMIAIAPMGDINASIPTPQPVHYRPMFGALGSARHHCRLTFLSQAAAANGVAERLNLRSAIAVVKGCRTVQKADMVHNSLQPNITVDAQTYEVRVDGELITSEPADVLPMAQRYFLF
Experimental: The cells were subsequently lysed by sonication, and cell debris was removed with centrifugation (20,000 × g, 10 min). […] Liberated NH3 was quantified using the indophenol-hypocholorite reaction as previously described. The total amount of protein was quantified by Bradford assay using bovine serum albumin as standard. Each assay was performed in duplicate wells.
FIG S7 Evaluation of Zn-AMA as a direct inhibitor of urease. A) Checkerboard analysis of Zn-AMA and AHA on urease activity of K. […]
Dose- […]
response curves of fluorofamide, Zn-AMA, and AMA inhibiting the urease-catalyzed release of NH3 quantified with indophenol hypochlorite. The rates of NH3 production were measured over 20 min and were normalized to total protein concentration. Experiments were performed in duplicate. Individual replicates are shown as colored circles.

[2] = tested on: S. aureus; type: cell-based, Staphylococcus aureus; settings: 200 μM, 24 h
[3] = tested on: K. pneumoniae urease activity (whole cell); assay: microbe, parasite or virus in culture; type: cell-based, Klebsiella pneumoniae ATCC 33495; settings: artificial urine, 24 h; for K. pneumoniae urease-dependent pH change (pH): 37 °C
[4] = tested on: [NiFe]-hydrogenase (Hyd-3); assay: Whole-cell [NiFe] hydrogenase assay (benzyl viologen reduction); type: cell-based, Klebsiella pneumoniae; set-up: Benzyl viologen hydrogenase assay (activity): unit not given here
From the text: We reasoned that disruption of Ni^2+ uptake and homeostasis should also perturb the activity of other Ni-dependent enzymes. To examine this possibility, we tested the effects of free AMA and Zn-AMA on Ni-dependent hydrogen metabolism in bacteria. […] K. pneumoniae produces a single [NiFe]-hydrogenase (Hyd-3) as part of the H2-evolving formate hydrogenlyase (FHL) complex and is encoded by the hyc operon (Fig S8)[21]. […] To measure [NiFe]-hydrogenase-catalyzed H2 […], benzyl viologen was used as an artificial electron acceptor, as previously described. Although Hyd-3 is involved in the evolution of H2, previous work in E. coli has shown that it is responsible for 90% of the hydrogen-dependent benzyl viologen reduction in crude extracts and whole-cell assays[41]–[44].
The whole-cell hydrogenase activity in K. pneumoniae was based on a modified method described by Lacasse et al.[41] […] The cell suspension was diluted 1/100 in LB supplemented with 0.8% glucose, 10 mM MgCl2, and 10 mM potassium phosphate, pH 7.2. […] Following an 18-hour incubation, whole-cell [NiFe] hydrogenase activity was monitored by adding benzyl viologen (1 mg/mL) to each well, followed by continuous monitoring of the change in absorbance at 630 nm using a BioTek Synergy H1 microplate reader in an anaerobic glove box.

[5] = tested on: K. pneumoniae; type: cell-based, Klebsiella pneumoniae; settings: for Growth curve (culture density): 50 μM
[6] = tested on: K. pneumoniae; type: cell-based, Klebsiella pneumoniae; settings: 200 μM, 24 h exposure
[7] = tested on: HEK293 cells; assay: HEK293 cytotoxicity assay (Cell Titer Glo 2.0)
[8] = tested on: struvite crystallization in K. pneumoniae cultures; assay: Struvite crystal nucleation in artificial urine cultures; type: cell-based, Klebsiella pneumoniae
From the text: A The metal complexed structure, selectivity, and affinity of AMA. The constituents of AMA are labeled L-aspartate (L-Asp) and 2,3-diaminopropionic acid (APA). B Dose-response urease inhibition assays in K. pneumoniae. […] C Dose-response effect of AMA and Zn-AMA on the nucleation of struvite crystals in K. pneumoniae cultures grown in artificial urine. Crystals were examined microscopically in 96-well plates and visually quantified. […] The data represent the representative mean of two replicates. D Quantification of planktonic growth and crystal violet-stained biofilms of K. pneumoniae grown in artificial urine and varying concentrations of Zn-AMA. […] Data represent mean ± s.d. of four technical replicates. E ICP-MS quantification of cellular ^60Ni and ^66Zn content in K. pneumoniae untreated or treated with 200 μM AMA, or Zn-AMA. […] Whole-cell hydrogenase assays were performed by adding benzyl viologen (BV) at a final concentration of 1 mg/mL and monitoring its reduction at an absorbance of 630 nm. Data represent the mean of two technical replicates.
FIG S5 Microscopic detection of struvite crystals grown in artificial urine cultures of K. pneumoniae. Top row, the concentration-dependent effect of AMA on struvite formation. Bottom row, the concentration-dependent effect of Zn-AMA on struvite formation.
Bacteria were grown in 96 well flat-bottom plates for 24h at 37 °C. Brightfield micrographs were taken with a BioTek Cytation cell imaging reader at 4x magnification. Four images were taken per well and were digitally stitched to generate whole-well images. […]

N[C@@H](CN[C@@H](CN[C@@H](CC(=O)O)C(=O)O)C(=O)O)C(=O)O [AMA, aspergillomarasmine A]
Specific activity (cell-free indophenol urease assay) ([1]; AMA 0.007813 mM): 42.56 nmol/min/mg and 44.10 nmol/min/mg | Specific activity (cell-free indophenol urease assay) ([1]; AMA 0.015625 mM): 40.68 nmol/min/mg and 41.88 nmol/min/mg | Specific activity (cell-free indophenol urease assay) ([1]; AMA 0.03125 mM): 40.85 nmol/min/mg and 42.39 nmol/min/mg | Specific activity (cell-free indophenol urease assay) ([1]; AMA 0.0625 mM): 40.85 nmol/min/mg | Specific activity (cell-free indophenol urease assay) ([1]; AMA 0.125 mM): 39.49 nmol/min/mg and 40.51 nmol/min/mg | Specific activity (cell-free indophenol urease assay) ([1]; AMA 0.25 mM): 37.95 nmol/min/mg and 38.29 nmol/min/mg | Specific activity (cell-free indophenol urease assay) ([1]; AMA 0.5 mM): 35.56 nmol/min/mg and 36.75 nmol/min/mg | Specific activity (cell-free indophenol urease assay) ([1]; AMA 1 mM): 35.04 nmol/min/mg and 35.73 nmol/min/mg | direct inhibition of urease ([1]; cell-free extract): excluded the direct inhibition of urease | bacterial viability (spot dilutions) [2]: not lethal to bacteria | K. pneumoniae urease-dependent pH change (pH) ([3]; 0.19 μM): 8.15 and 8.19 | K. pneumoniae urease-dependent pH change (pH) ([3]; 0.39 μM): 8.16 and 8.12 | K. pneumoniae urease-dependent pH change (pH) ([3]; 0.78 μM): 8.08 and 8.03 | K. pneumoniae urease-dependent pH change (pH) ([3]; 1.56 μM): 7.97 and 7.75 | K. pneumoniae urease-dependent pH change (pH) ([3]; 3.12 μM): 7.86 and 7.57 | K. pneumoniae urease-dependent pH change (pH) ([3]; 6.25 μM): 7.81 and 7.46 | K. pneumoniae urease-dependent pH change (pH) ([3]; 12.5 μM): 7.78 and 7.33 | K. pneumoniae urease-dependent pH change (pH) ([3]; 25 μM): 7.75 and 7.40 | K. pneumoniae urease-dependent pH change (pH) ([3]; 50 μM): 7.87 and 7.54 | K. pneumoniae urease-dependent pH change (pH) ([3]; 100 μM): 8.02 and 7.77 | K. pneumoniae urease-dependent pH change (pH) ([3]; 200 μM): 8.03 and 8.04 | effect on urease activity ([3]; K. pneumoniae): did not significantly affect urease activity | Benzyl viologen hydrogenase assay (activity) ([4]; 1.5625 μM): 10.01 and 8.89 | Benzyl viologen hydrogenase assay (activity) ([4]; 3.125 μM): 10.26 and 7.90 | Benzyl viologen hydrogenase assay (activity) ([4]; 6.25 μM): 10.55 and 8.44 | Benzyl viologen hydrogenase assay (activity) ([4]; 12.5 μM): 10.31 and 8.59 | Benzyl viologen hydrogenase assay (activity) ([4]; 25 μM): 10.36 and 8.93 | Benzyl viologen hydrogenase assay (activity) ([4]; 50 μM): 9.47 and 8.79 | Benzyl viologen hydrogenase assay (activity) ([4]; 100 μM): 9.67 and 7.85 | Benzyl viologen hydrogenase assay (activity) ([4]; 200 μM): 9.18 and 9.08 | Benzyl viologen hydrogenase assay (activity) ([4]; 400 μM): 9.38 and 7.95 | effect on [NiFe]-hydrogenase activity ([4]; LB-glucose, anaerobic, whole cell): no impact on [NiFe]-hydrogenase activity | Growth of K. pneumoniae with urea as a sole nitrogen source (OD600) [5]: 1.19 | Growth curve (culture density) ([5]; 15.15 h): 0.165 and 0.162 | Growth curve (culture density) ([5]; 16.15 h): 0.186 and 0.183 | Growth curve (culture density) ([5]; 17.15 h): 0.218 and 0.214 | growth with urea as sole nitrogen source ([5]; Chelex-treated nitrogen-limited medium): not viable | bacterial viability (spot dilutions) [6]: do not affect bacterial viability | cytotoxicity toward HEK293 ([7]; 48 h, up to 512 μg/mL (~1.4 mM)): no significant cytotoxicity | IC50 (HEK293 viability) ([7]; 48 h, highest tested 512 µg/mL (MG-132 62.5 µg/mL), Zn and Ni values of low confidence): Does no t fit to the mo del | HEK 293T cytotoxicity assay raw signal ([7]; AMA 0.5 μg/mL): 625667 and 666020 and 709951 | HEK 293T cytotoxicity assay raw signal ([7]; AMA 1 μg/mL): 642619 and 585959 and 657816 | HEK 293T cytotoxicity assay raw signal ([7]; AMA 2 μg/mL): 663671 and 698910 and 700863 | HEK 293T cytotoxicity assay raw signal ([7]; AMA 4 μg/mL): 595054 and 606045 and 670753 | HEK 293T cytotoxicity assay raw signal ([7]; AMA 8 μg/mL): 579865 and 576275 and 764893 | HEK 293T cytotoxicity assay raw signal ([7]; AMA 16 μg/mL): 628738 and 611425 and 704710 | HEK 293T cytotoxicity assay raw signal ([7]; AMA 32 μg/mL): 627377 and 612979 and 683402 | HEK 293T cytotoxicity assay raw signal ([7]; AMA 64 μg/mL): 591894 and 576108 and 744283 | HEK 293T cytotoxicity assay raw signal ([7]; AMA 128 μg/mL): 558480 and 565965 and 608380 | HEK 293T cytotoxicity assay raw signal ([7]; AMA 256 μg/mL): 567074 and 538238 and 648309 | HEK 293T cytotoxicity assay raw signal ([7]; AMA 512 μg/mL): 571681 and 577586 and 600345 | Struvite crystal quantification (count) ([8]; 3.12 μM): 59 and 42 | Struvite crystal quantification (count) ([8]; 6.25 μM): 99 and 82 | Struvite crystal quantification (count) ([8]; 12 μM): 74 and 95 | Struvite crystal quantification (count) ([8]; 25 μM): 68 and 103 | Struvite crystal quantification (count) ([8]; 50 μM): 72 and 91 | Struvite crystal quantification (count) ([8]; 100 μM): 70 and 83 | Struvite crystal quantification (count) ([8]; 200 μM): 36 and 49
